Data on three compounds can be found in patent US20060142241A1, “Methods and compositions for reducing neurodegeneration in amyotrophic lateral sclerosis” (priority 2004, published 2006).

Converted amounts (≈) assume the structure as drawn.

The nature of data set [1]: in vitro. The note with it: rat/mouse hybrid.
Procedure: To evaluate the anti-apoptotic effect of solubilized UDCA against GSNO on wild type cells and cells containing G93A and A4V mutations in hSOD1, wildtype cells, G93A cells, and A4V cells were incubated with 500 μM GSNO for 24 h in order to induce apoptosis and then cell viability of was determined. These apoptosis-induced wildtype cells, G93A cells, and A4V cells were next incubated with 20 μM of solubilized UDCA for 24 h and cell viability was determined again using both the MTT assay and Trypan blue staining.
Cell culture: VSC 4.1. […]
MTT assay and trypan blue staining to evaluate the anti-apoptotic effects of solubilized UDCA and its results; 3-(4,5-dimethylthiazol-2-yl)-2,5-diphenyltetrazolium bromide (MTT) is absorbed into cells and converted to formazan by the action of mitochondrial succinate dehydrogenase. […] Finally, optical density (OD) was read at 540 nm on the ELISA plate reader after particles in the well were dissolved by a microplate mixer for 10 min. Results were calibrated using OD measured without cell culture. […] Unstained live cells were counted on a haemocytometer. Cell viability was expressed as percentages of the cell survival.
The subject of data set [2] is wild type cells (VSC 4.1, wild type human Cu/Zn SOD-1). As to the kind of experiment: DAPI staining to evaluate apoptosis by GSNO. The conditions noted are these: 500 μM GSNO, 24 h. The format is cell-based. As to the method:
(§1) DAPI staining to evaluate apoptosis by GSNO and its results; 4′,6-Diamidino-2-phenylindole dihydrochloride (DAPI) staining was performed to evaluate apoptosis as follows. After differentiation, the wildtype (control), G93A, and A4V cells were incubated with without 500 μM GSNO for 24 h; the cells were then centrifuged at 265 g for 2 min, and 4% neutral buffered formalin (100 μL) was added to the cell pellet. A 50 μL aliquot of the cell suspension was applied to a glass slide and dried at room temperature. The fixed cells were washed in PBS, air dried, and stained for 20 min with the DNA-specific fluorochrome, DAPI (Sigma, Saint Louis, Mo., USA). The adhered cells were rinsed with PBS, air dried, and mounted with 90% glycerol. The slides were observed under Olympus fluorescence microscopy(pictures).

The subject of data set [3] is A4V cells (VSC 4.1, mutant human Cu/Zn SOD-1). In words: DAPI staining to evaluate apoptosis by GSNO. The format is cell-based. The note with it: 500 μM GSNO, 24 h. The procedure:
as §1

Data set [4] concerns G93A cells (VSC 4.1, mutant human Cu/Zn SOD-1). As to the kind of experiment: DAPI staining to evaluate apoptosis by GSNO. The format is cell-based. The note with it: 500 μM GSNO, 24 h. The procedure: as §1
The conditions of data set [5]: oral administration; cited from earlier work.
The conditions of data set [6]: protonated form; cited from earlier work.

The viability is a read-out of living cells in per cent, often relative to untreated cells. Read a high viability as less harm to the cells. Consider `N[C@@H](CCC(=O)N[C@@H](CSN=O)C(=O)NCC(=O)O)C(=O)O` [GSNO, S-nitrosoglutathione], for which the viability at 24 h, 500 μM in data set [1] turned out to be 81%. In addition, the “percent of apoptotic cells” value in data set [2] stood at 8%; in data set [3], 25%; in data set [4], 19%.

As a reminder, the solubility is the concentration that dissolves in the medium under given conditions. For the compound `C[C@H](CCC(=O)O)[C@H]1CC[C@H]2[C@@H]3[C@@H](O)C[C@@H]4C[C@H](O)CC[C@]4(C)[C@H]3CC[C@]12C` [UDCA, Ursodeoxycholic acid], the “fraction of an ingested dose absorbed in the colon” value in data set [5] was 20%. In data set [6], the solubility entry is reported as “about 0.05 mM”.

Turning to `C[C@H](CCC(=O)NCCS(=O)(=O)O)[C@H]1CC[C@H]2[C@@H]3[C@@H](O)C[C@@H]4C[C@H](O)CC[C@]4(C)[C@H]3CC[C@]12C` [TUDCA, tauroursodeoxycholic acid], the solubility in data set [6] was 450 µM (≈ 225 µg/mL).
